This passage reports IC50 results from patent publication US20240376085A1 (Janssen Pharmaceutica NV, priority 2021, published 2024).

Assay [1] deals with T1, IL-17A : IL-17RA binding (Homo sapiens, UniProt Q16552, K93Q).
T1 construct: Name: IL-17A-Flag
The assay is described as follows: IL-17A(FLAG-tagged):IL-17RA(His-tagged) binding disruption Eu-HTRF assay, Protocol 1. Particulars: FLAG-IL-17A 2.5 nM at 2x final concentration; average if tested more than once. In a few lines:
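IC50 came from a one-site competition fit of the acceptor/donor (665/620 nm) HTRF ratio. His-tagged IL-17RA, Eu-anti-FLAG and D2-anti-His were added after a 1 h rt compound preincubation with FLAG-tagged IL-17A dimer in PBS/0.01% Triton X-100, followed by 2 h at rt before reading.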
On the technique in general: Time-resolved FRET reads energy transfer from a long-lived donor to a nearby acceptor.

For assay [2], the system named is IL-17A-induced G-CSF production in human normal keratinocyte (NHK). The assay is described as follows: NHK assay: IL-17A-induced G-CSF production in normal human keratinocytes. The format is cell-based. As to conditions: 24 h, IL-17A 5 ng/mL, average if tested more than once. In a few lines:
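Stimulus rhIL-17A 5 ng/mL final, premixed 1 h rt with compound; adult NHK, 5% FBS, 0.2% DMSO. Viability by CellTiter-Glo vs DMSO.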

The term IC50 denotes the point on the concentration scale where inhibition reaches its midpoint. Low values mean inhibition by little substance, high ones a need for much substance.

T1 sequence (Q16552 with tags, fused parts or gaps K93Q): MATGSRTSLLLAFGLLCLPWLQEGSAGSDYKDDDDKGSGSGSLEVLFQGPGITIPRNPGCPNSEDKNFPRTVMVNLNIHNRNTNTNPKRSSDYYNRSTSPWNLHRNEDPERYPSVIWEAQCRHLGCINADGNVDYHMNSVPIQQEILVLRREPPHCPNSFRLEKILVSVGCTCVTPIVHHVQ

In the case of `CC(C)(OC[C@H](NC(=O)c1nonc1OCC(F)(F)F)c1nc2cc([C@H](NC(=O)CC3CC(F)(F)C3)C3CC3)ccc2[nH]1)C(F)(F)F` [Example 267, N—((R)-1-(5-((R)-Cyclopropyl(2-(3,3-difluorocyclobutyl)acetamido)methyl)-1H-benzo[d]imidazol-2-yl)-2-((1,1,1-trifluoro-2-methylpropan-2-yl)oxy)ethyl)-4-(2,2,2-trifluoroethoxy)-1,2,5-oxadiazole-3-carboxamide], the concentration for half-maximal inhibition (IC50) was less than 0.05 µM in assay [1] and less than 0.05 µM in assay [2] (Homo sapiens, Keratinocyte).

Consider `Cc1nonc1C(=O)N[C@H](c1nc2ccc([C@H](NC(=O)CC3CC(F)(F)C3)C3CC3)cc2[nH]1)[C@H]1C[C@@H](CC(F)(F)F)C1` (single isomer, unassigned) [Example 244], for which the IC50 was more than 0.1 µM in assay [1] and more than 0.1 µM in assay [2] (Homo sapiens, Keratinocyte).

In the case of `C[C@@H](NC(=O)CCC(F)(F)F)c1ccc2[nH]c([C@@H](NC(=O)[C@@H]3C[C@H]3C(F)(F)F)C3CCC(F)(F)CC3)nc2c1` (relative stereo) [Example 106, trans-(1R*,2R*)—N—((S)-(4,4-Difluorocyclohexyl)(5-((R)-1-(4,4,4-trifluorobutanamido)ethyl)-1H-benzo[d]imidazol-2-yl)methyl)-2-(trifluoromethyl)cyclopropane-1-carboxamide], the IC50 is more than 0.1 µM in assay [1] and more than 0.1 µM in assay [2] (Homo sapiens, Keratinocyte).

`C[C@@H](NC(=O)CCC(F)(F)F)c1ccc2[nH]c([C@@H](NC(=O)c3cnn(CCC(F)(F)F)n3)[C@@H]3CCCC(F)(F)C3)nc2c1` [Example 265]: the IC50 was more than 0.1 µM in assay [1] and more than 0.1 µM in assay [2] (Homo sapiens, Keratinocyte).

As to `C[C@@H](NC(=O)CCC(F)(F)F)c1ccc2[nH]c([C@@H](NC(=O)c3cnc4n3CCC4)C3CCC(F)(F)CC3)nc2c1` [Example 211, N—((S)-(4,4-Difluorocyclohexyl)(5-((R)-1-(4,4,4-trifluorobutanamido)ethyl)-1H-benzo[d]imidazol-2-yl)methyl)-6,7-dihydro-5H-pyrrolo[1,2-a]imidazole-3-carboxamide], the IC50 in assay [1] is more than 0.1 µM; in assay [2] (Homo sapiens, Keratinocyte) it was more than 0.1 µM.

Turning to `C[C@@H](NC(=O)CCC(F)(F)F)c1ccc2[nH]c([C@@H](NC(=O)c3ncnn3CCC(F)(F)F)C3CCC(F)(F)CC3)nc2c1` [Example 220, N—((S)-(4,4-Difluorocyclohexyl)(5-((R)-1-(4,4,4-trifluorobutanamido)ethyl)-1H-benzo[d]imidazol-2-yl)methyl)-1-(3,3,3-trifluoropropyl)-1H-1,2,4-triazole-5-carboxamide], the half-inhibitory concentration (IC50) in assay [1] was 0.05 to 0.1 µM; in assay [2] (Homo sapiens, Keratinocyte), more than 0.1 µM.

Turning to `C[C@@H](NC(=O)CCC(F)(F)F)c1ccc2[nH]c([C@@H](NC(=O)c3cnnn3CCC(F)(F)F)C3CCC(F)(F)CC3)nc2c1` [Example 4, N—[(S)-(4,4-Difluorocyclohexyl)-[6-[(1R)-1-(4,4,4-trifluorobutanoylamino)ethyl]-1H-benzimidazol-2-yl]methyl]-3-(3,3,3-trifluoropropyl)triazole-4-carboxamide], the concentration for half-maximal inhibition (IC50) in assay [1] is more than 0.1 µM; in assay [2] (Homo sapiens, Keratinocyte) it was 0.05 to 0.1 µM.

As for `Cc1nonc1C(=O)N[C@@H](CC(C)(C)C(F)(F)F)c1nc2cc([C@@H](NC(=O)CCC(F)(F)F)C3CC3)ccc2[nH]1` (relative stereo) [Example 192, N—((S*)-1-(5-((S*)-Cyclopropyl(4,4,4-trifluorobutanamido)methyl)-1H-benzo[d]imidazol-2-yl)-4,4,4-trifluoro-3,3-dimethylbutyl)-4-methyl-1,2,5-oxadiazole-3-carboxamide], the half-maximal inhibitory concentration (IC50) in assay [1] was more than 0.1 µM; in assay [2] (Homo sapiens, Keratinocyte) it was more than 0.1 µM.

`C[C@@H](NC(=O)CCC(F)(F)F)c1ccc2[nH]c([C@@H](NC(=O)CC3CC3(F)F)C3CCC(F)(F)CC3)nc2c1` (single isomer, unassigned) [Example 107, N—((R)-1-(2-((S)-(4,4-Difluorocyclohexyl)(2-((R*)-2,2-difluorocyclopropyl)acetamido)methyl)-1H-benzo[d]imidazol-5-yl)ethyl)-4,4,4-trifluorobutanamide]: the IC50 was more than 0.1 µM in assay [1] and more than 0.1 µM in assay [2] (Homo sapiens, Keratinocyte).

Regarding `C[C@@H](NC(=O)CCC(F)(F)F)c1ccc2[nH]c([C@@H](NC(=O)c3cnn(CCC(F)(F)F)n3)C3CCC(F)(F)CC3)nc2c1` [Example 3, N—[(S)-(4,4-Difluorocyclohexyl)-[6-[(1R)-1-(4,4,4-trifluorobutanoylamino)ethyl]-1H-benzimidazol-2-yl]methyl]-2-(3,3,3-trifluoropropyl)triazole-4-carboxamide], the 50% inhibitory concentration (IC50) in assay [1] was more than 0.1 µM; in assay [2] (Homo sapiens, Keratinocyte), more than 0.1 µM.

Turning to `Cc1nonc1C(=O)N[C@@H](CC(C)(C)C(F)(F)F)c1nc2ccc([C@H](NC(=O)CC(C)C(F)(F)F)C3CC3)cc2[nH]1` (single isomer, unassigned) [Example 180, N—((S)-1-(6-((R)-Cyclopropyl((S*)-4,4,4-trifluoro-3-methylbutanamido)methyl)-1H-benzo[d]imidazol-2-yl)-4,4,4-trifluoro-3,3-dimethylbutyl)-4-methyl-1,2,5-oxadiazole-3-carboxamide], the IC50 was 0.05 to 0.1 µM in assay [1] and more than 0.1 µM in assay [2].

In the case of `CCC(NC(=O)CCC(F)(F)F)c1ccc2[nH]c([C@@H](NC(=O)c3ccnn3C)C3CCC(F)(F)CC3)nc2c1` (single isomer, unassigned) [Example 53, N—((S)-(4,4-Difluorocyclohexyl)(5-((R*)-1-(4,4,4-trifluorobutanamido)propyl)-1H-benzo[d]imidazol-2-yl)methyl)-1-methyl-1H-pyrazole-5-carboxamide], the IC50 in assay [1] was more than 0.1 µM; in assay [2], 0.05 to 0.1 µM.

For the compound `C[C@@H](NC(=O)CCC(F)(F)F)c1ccc2[nH]c([C@@H](NC(=O)C3(C)CC3(F)F)C3CCC(F)(F)CC3)nc2c1` (relative stereo) [Example 109, N—((S)-(4,4-Difluorocyclohexyl)(5-((R*)-1-(4,4,4-trifluorobutanamido)ethyl)-1H-benzo[d]imidazol-2-yl)methyl)-2,2-difluoro-1-methylcyclopropane-1-carboxamide], the IC50 was more than 0.1 µM in assay [1] and more than 0.1 µM in assay [2] (Homo sapiens, Keratinocyte).

Turning to `O=C(CC1CC(F)(F)C1)N[C@@H](c1ccc2[nH]c([C@@H](NC(=O)c3nonc3C3CC3)C3CCC(F)(F)CC3)nc2c1)C1CC1` [Example 143, 4-Cyclopropyl-N—((S)-(5-((R)-cyclopropyl(2-(3,3-difluorocyclobutyl)acetamido)methyl)-1H-benzo[d]imidazol-2-yl)(4,4-difluorocyclohexyl)methyl)-1,2,5-oxadiazole-3-carboxamide], the IC50 in assay [1] is less than 0.05 µM; in assay [2] (Homo sapiens, Keratinocyte) it was less than 0.05 µM.

Take `CC(C)n1nccc1C(=O)N[C@H](c1nc2ccc([C@H](NC(=O)CC3CC(F)(F)C3)C3CC3)cc2[nH]1)[C@H]1C[C@@H]2[C@H](C1)C2(F)F` [Example 241, N—((S)-(6-((R)-Cyclopropyl(2-(3,3-difluorocyclobutyl)acetamido)methyl)-1H-benzo[d]imidazol-2-yl)((1R,3r,5S)-6,6-difluorobicyclo[3.1.0]hexan-3-yl)methyl)-1-isopropyl-1H-pyrazole-5-carboxamide]: the IC50 in assay [1] was 0.05 to 0.1 µM; in assay [2] (Homo sapiens, Keratinocyte) it was less than 0.05 µM.

Regarding `C[C@@H](NC(=O)CC(C(F)(F)F)C(F)(F)F)c1ccc2[nH]c([C@@H](NC(=O)c3ccnn3C)C3CCC(F)(F)CC3)nc2c1` [Example 116, N—((S)-(4,4-Difluorocyclohexyl)(5-((R)-1-(4,4,4-trifluoro-3-(trifluoromethyl)butanamido)ethyl)-1H-benzo[d]imidazol-2-yl)methyl)-1-methyl-1H-pyrazole-5-carboxamide], the IC50 in assay [1] was 0.05 to 0.1 µM; in assay [2] (Homo sapiens, Keratinocyte), less than 0.05 µM.

Consider `CC(CC(=O)N[C@H](C)c1ccc2nc([C@@H](NC(=O)c3cc(F)ccc3F)C3CCC(F)(F)CC3)[nH]c2c1)C(F)(F)F` (single isomer, unassigned) [Example 140, N—((S)-(4,4-Difluorocyclohexyl)(6-((R)-1-((S*)-4,4,4-trifluoro-3-methylbutanamido)ethyl)-1H-benzo[d]imidazol-2-yl)methyl)-2,5-difluorobenzamide], for which the IC50 in assay [1] and in assay [2] was more than 0.1 µM in each case.

`CC(C)n1nccc1C(=O)N[C@H](c1nc2ccc([C@@H](C)NC(=O)CC(C)C(F)(F)F)cc2[nH]1)C1CCC(F)(F)CC1` (single isomer, unassigned) [Example 139, N—((S)-(4,4-Difluorocyclohexyl)(6-((R)-1-((S*)-4,4,4-trifluoro-3-methylbutanamido)ethyl)-1H-benzo[d]imidazol-2-yl)methyl)-1-isopropyl-1H-pyrazole-5-carboxamide]: the half-inhibitory concentration (IC50) in assay [1] was more than 0.1 µM; in assay [2] it was less than 0.05 µM.

Take `C[C@@H](NC(=O)CCC(F)(F)F)c1ccc2[nH]c([C@@H](NC(=O)c3cnnn3CCC3CC3)C3CCC(F)(F)CC3)nc2c1` [Example 13, 3-(2-Cyclopropylethyl)-N—[(S)-(4,4-difluorocyclohexyl)-[6-[(1R)-1-(4,4,4-trifluorobutanoylamino)ethyl]-1H-benzimidazol-2-yl]methyl]triazole-4-carboxamide]: the 50% inhibitory concentration (IC50) in assay [1] was more than 0.1 µM; in assay [2] (Homo sapiens, Keratinocyte) it was more than 0.1 µM.

`Cc1nonc1C(=O)N[C@H](c1nc2ccc([C@H](NC(=O)CC3CC(F)(F)C3)C3CC3)cc2[nH]1)[C@@H]1C[C@H]2C[C@H]2C1` [Example 254, N—((S)-((1R,3s,5S)-Bicyclo[3.1.0]hexan-3-yl)(6-((R)-cyclopropyl(2-(3,3-difluorocyclobutyl)acetamido)methyl)-1H-benzo[d]imidazol-2-yl)methyl)-4-methyl-1,2,5-oxadiazole-3-carboxamide]: the IC50 was less than 0.05 µM in assay [1] and more than 0.1 µM in assay [2] (Homo sapiens, Keratinocyte).
